Assay results reported in US12539292B2, “BRM targeting compounds and associated methods of use” (Arvinas Operations, Inc., priority 2018, dated 2026).
Where two headings read alike, the source gives them in different places.

Target: T1, BRM (Homo sapiens, UniProt P51531)
T1 construct: In-Cell Western Screen of BRM Degradation in SW1573 Cells; endogenous in cells; host or cells: SW1573
Assay: In-cell Western screen of BRM degradation in SW1573 cells (Dmax and DC50)
Format: cell-based
Details: BRM degradation, SW1573 cells
In short: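 Overnight compound treatment (18-20 h, final DMSO 0.1%) of SW1573 cells in DMEM with 10% FBS precedes fixation and in-cell Western staining with 800/680 nm dye-labelled secondaries. Plate images give DC50 and maximal degradation.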

T1 sequence (P51531 whole entry): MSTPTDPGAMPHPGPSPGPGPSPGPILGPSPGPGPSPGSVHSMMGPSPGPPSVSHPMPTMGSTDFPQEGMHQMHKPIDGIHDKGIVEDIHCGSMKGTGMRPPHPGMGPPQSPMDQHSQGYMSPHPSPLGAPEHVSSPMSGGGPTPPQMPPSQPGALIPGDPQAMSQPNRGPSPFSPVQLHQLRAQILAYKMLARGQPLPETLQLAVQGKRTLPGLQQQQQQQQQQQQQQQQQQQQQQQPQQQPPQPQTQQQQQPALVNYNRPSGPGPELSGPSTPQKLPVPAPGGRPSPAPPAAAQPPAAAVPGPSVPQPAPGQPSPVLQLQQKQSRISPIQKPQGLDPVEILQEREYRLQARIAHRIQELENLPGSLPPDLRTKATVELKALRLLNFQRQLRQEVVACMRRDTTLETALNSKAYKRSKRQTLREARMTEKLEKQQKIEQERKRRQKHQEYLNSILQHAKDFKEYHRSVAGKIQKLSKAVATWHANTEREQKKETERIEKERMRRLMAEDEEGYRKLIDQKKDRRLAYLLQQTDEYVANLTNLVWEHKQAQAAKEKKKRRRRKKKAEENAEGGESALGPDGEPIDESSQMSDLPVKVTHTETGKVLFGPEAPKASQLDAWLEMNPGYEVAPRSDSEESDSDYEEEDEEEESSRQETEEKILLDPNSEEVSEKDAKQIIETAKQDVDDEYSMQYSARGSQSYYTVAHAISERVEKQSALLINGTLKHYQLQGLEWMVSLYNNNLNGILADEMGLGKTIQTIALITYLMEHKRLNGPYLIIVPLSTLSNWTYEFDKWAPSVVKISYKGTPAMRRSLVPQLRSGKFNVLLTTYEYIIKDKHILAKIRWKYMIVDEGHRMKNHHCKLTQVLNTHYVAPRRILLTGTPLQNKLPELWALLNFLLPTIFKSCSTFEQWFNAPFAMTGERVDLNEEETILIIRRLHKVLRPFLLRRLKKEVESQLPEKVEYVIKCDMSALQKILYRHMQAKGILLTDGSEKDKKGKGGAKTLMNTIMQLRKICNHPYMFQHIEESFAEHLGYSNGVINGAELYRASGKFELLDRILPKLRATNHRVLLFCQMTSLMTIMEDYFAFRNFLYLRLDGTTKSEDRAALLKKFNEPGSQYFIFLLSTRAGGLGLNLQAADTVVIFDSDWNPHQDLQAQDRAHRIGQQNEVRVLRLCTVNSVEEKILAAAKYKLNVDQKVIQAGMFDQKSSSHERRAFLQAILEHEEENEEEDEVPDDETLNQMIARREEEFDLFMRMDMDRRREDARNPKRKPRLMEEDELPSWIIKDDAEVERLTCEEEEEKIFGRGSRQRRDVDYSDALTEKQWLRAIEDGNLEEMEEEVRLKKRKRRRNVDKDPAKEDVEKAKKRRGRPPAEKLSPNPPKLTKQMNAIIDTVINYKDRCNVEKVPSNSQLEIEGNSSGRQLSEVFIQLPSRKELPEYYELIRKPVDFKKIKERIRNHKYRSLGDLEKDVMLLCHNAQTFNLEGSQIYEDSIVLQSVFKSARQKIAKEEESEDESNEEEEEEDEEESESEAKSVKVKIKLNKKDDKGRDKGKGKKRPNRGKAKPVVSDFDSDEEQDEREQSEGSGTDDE

SMILES | DC50 (read-out: DC50) [nM] | DC50 (Table 2D, read-out: *DC50) [nM] | other results
Cc1ncsc1-c1ccc([C@H](C)NC(=O)[C@@H]2C[C@@H](O)CN2C(=O)[C@@H](c2cc(N3CCN(C(C)(C)C4CCN(C[C@H]5C[C@H](Oc6cc(N7C8CCC7CN(c7cc(-c9ccccc9O)nnc7N)C8)ccn6)C5)CC4)CC3)no2)C(C)C)cc1 [compound 715, (2S,4R)-1-((2R)-2-(3-(4-(2-(1-(((1r,3r)-3-((4-(3-(3-amino-6-(2-hydroxyphenyl)pyridazin-4-yl)-3,8-diazabicyclo[3.2.1]octan-8-yl)pyridin-2-yl)oxy)cyclobutyl)methyl)piperidin-4-yl)propan-2-yl)piperazin-1-yl)isoxazol-5-yl)-3-methylbutanoyl)-4-hydroxy-N-((S)-1-(4-(4-methylthiazol-5-yl)phenyl)ethyl)pyrrolidine-2-carboxamide] | < 2.5 | – | Dmax (read-out: Dmax (% degraded)): > 75%
Cc1ncsc1-c1cnc([C@H](C)NC(=O)[C@@H]2C[C@@H](O)CN2C(=O)[C@H](c2cc(N3CCC(CN4CCC(O[C@H]5C[C@H](Oc6cc(N7C8CCC7CN(c7cc(-c9ccccc9O)nnc7N)C8)ccn6)C5)CC4)CC3)no2)C(C)C)cn1 [compound 589, (2S,4R)-1-((2S)-2-(3-(4-((4-((1r,3r)-3-((4-(3-(3-amino-6-(2-hydroxyphenyl)pyridazin-4-yl)-3,8-diazabicyclo[3.2.1]octan-8-yl)pyridin-2-yl)oxy)cyclobutoxy)piperidin-1-yl)methyl)piperidin-1-yl)isoxazol-5-yl)-3-methylbutanoyl)-4-hydroxy-N-((S)-1-(5-(4-methylthiazol-5-yl)pyrazin-2-yl)ethyl)pyrrolidine-2-carboxamide] | – | > 30 | –
Cc1ncsc1-c1ccc([C@H](C)NC(=O)[C@@H]2C[C@@H](O)CN2C(=O)[C@@H](c2cc(OCC[C@@H]3CCN(C[C@H]4C[C@H](Oc5cc(N6C7CCC6CN(c6cc(-c8ccccc8O)nnc6N)C7)ccn5)C4)C[C@H]3C)no2)C(C)C)cc1 (racemic) [compound 546, (2S,4R)-1-((2R)-2-(3-(2-((3S,4S)-1-(((1r,3S)-3-((4-(3-(3-amino-6-(2-hydroxyphenyl)pyridazin-4-yl)-3,8-diazabicyclo[3.2.1]octan-8-yl)pyridin-2-yl)oxy)cyclobutyl)methyl)-3-methylpiperidin-4-yl)ethoxy)isoxazol-5-yl)-3-methylbutanoyl)-4-hydroxy-N-((S)-1-(4-(4-methylthiazol-5-yl)phenyl)ethyl)pyrrolidine-2-carboxamide] | – | < 2.5 | Dmax (Table 2D, read-out: **Dmax (%) (% degraded)): > 75%
Cc1ncsc1-c1ccc(CNC(=O)[C@@H]2C[C@@H](O)CN2C(=O)[C@H](c2cc(OCCN3CCN(CCOc4cc(N5C6CCC5CN(c5cc(-c7ccccc7O)nnc5N)C6)ccn4)CC3)no2)C(C)C)cc1 [compound 41, (2S,4R)-1-[(2S)-2-[3-[2-(4-[2-[(4-[3-[3-amino-6-(2-hydroxyphenyl)pyridazin-4-yl]-3,8-diazabicyclo[3.2.1]octan-8-yl]pyridin-2-yl)oxy]ethyl]piperazin-1-yl)ethoxy]-1,2-oxazol-5-yl]-3-methylbutanoyl]-4-hydroxy-N-[[4-(4-methyl-1,3-thiazol-5-yl)phenyl]methyl]pyrrolidine-2-carboxamide] | 10 to 30 | – | Dmax (when tested at the top concentration of between 0.3 and 10 μM, read-out: Dmax (%) (% degraded)): > 75%
Cc1ncsc1-c1ccc([C@@H](NC(=O)[C@@H]2C[C@@H](O)CN2C(=O)[C@H](c2cc(OCCN3CCC(O[C@H]4C[C@H](Oc5cc(N6C7CCC6CN(c6cc(-c8ccccc8O)nnc6N)C7)ccn5)C4)CC3)no2)C(C)C)C(F)F)cc1 [compound 267, (2S,4R)-1-((2S)-2-(3-(2-(4-((1r,3S)-3-((4-(3-(3-amino-6-(2-hydroxyphenyl)pyridazin-4-yl)-3,8-diazabicyclo[3.2.1]octan-8-yl)pyridin-2-yl)oxy)cyclobutoxy)piperidin-1-yl)ethoxy)isoxazol-5-yl)-3-methylbutanoyl)-N-((R)-2,2-difluoro-1-(4-(4-methylthiazol-5-yl)phenyl)ethyl)-4-hydroxypyrrolidine-2-carboxamide] | 2.5 to 10 | – | Dmax (tested at the top concentration of between 0.3 and 10 μM, read-out: Dmax (%) (% degraded)): > 75%
